This note sets out measurements from patent US20250340551A1, “SMALL MOLECULE MODULATORS OF STAT6” (Gilead Sciences, Inc., priority 2024, published 2025).

What is called Kd is a measure of binding affinity in units of concentration. As a reminder, the EC50 is the concentration that produces a half-maximal response. A lower EC50 goes with a more potent agent. By Emax is commonly meant the maximal effect, on the per cent scale that the assay sets.

The target in one experiment is human STAT6 (Homo sapiens (Human), UniProt P42226). The experiment can be described thus: Surface plasmon resonance assay (Biacore 8K, binding to immobilized STAT6). As to conditions: human STAT6 aa122-658, N-terminal His-tag, CM5 chip, 25° C.; geometric mean; read-out: STAT6 SPR Kd. The essentials:
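Run at 25° C with His-tagged STAT6 aa122-658 (insect-cell expressed) amine-coupled to a CM5 chip, reference-subtracted, in PBS-P+ with 2% DMSO. Multi-cycle kinetics: 60 sec. contact, up to 300 sec. dissociation. Affinity fitted from late report-point binding isotherms, with Rmax both free and fixed to theoretical 1:1.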
In general terms: Surface plasmon resonance follows binding to a sensor surface in real time, without labels.

The test system of experiment [1] is Eotaxin-3 (CCL26) release in human whole blood stimulated with IL-4. The experiment can be described thus: Human whole blood eotaxin-3 assay (IL-4 stimulated, Eotaxin-3 release). In kind it is cell-based. As to conditions: Homo sapiens; for EC50: Hec50, 48 h; for Emax: 48 h. The essentials: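 Lithium-heparin blood preincubated 2 h at 37° C with 4-fold compound dilutions (0.5% DMSO, triplicates), then stimulated with 400 pM recombinant human IL-4 for 48 h. Eotaxin-3 in plasma supernatant measured by MSD immunoassay.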

Sequence of human STAT6 (P42226 122-658): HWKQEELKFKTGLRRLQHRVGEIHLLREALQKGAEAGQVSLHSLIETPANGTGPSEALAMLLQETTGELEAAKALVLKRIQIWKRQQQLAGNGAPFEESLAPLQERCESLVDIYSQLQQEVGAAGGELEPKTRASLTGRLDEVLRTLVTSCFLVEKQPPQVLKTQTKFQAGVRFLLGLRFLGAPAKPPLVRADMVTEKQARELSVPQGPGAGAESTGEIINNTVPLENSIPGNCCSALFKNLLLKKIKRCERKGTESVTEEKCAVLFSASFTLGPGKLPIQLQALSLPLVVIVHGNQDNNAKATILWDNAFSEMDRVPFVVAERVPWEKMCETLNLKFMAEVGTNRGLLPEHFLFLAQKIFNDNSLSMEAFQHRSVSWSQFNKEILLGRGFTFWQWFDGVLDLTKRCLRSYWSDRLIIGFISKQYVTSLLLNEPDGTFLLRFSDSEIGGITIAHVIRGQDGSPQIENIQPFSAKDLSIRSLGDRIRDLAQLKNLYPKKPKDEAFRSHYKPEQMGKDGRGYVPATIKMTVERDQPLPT

Turning to `C[C@@H]1C[C@H](c2ccc(C(=O)N(C)C)cc2)CCN1Cc1cc2c(-c3ccc(N)cn3)ccnc2n1C` (single isomer, unassigned) [Example 1q1], the Kd on human STAT6 came to 18.1 nM. Moreover, in experiment [1], the EC50 was determined as 370 nM.
In the same order, the values of `C[C@@H]1C[C@H](c2ccc(C(=O)N(C)C)cc2)CCN1Cc1cc2c(-c3ccc(N)nc3C#N)ccnc2n1C` (single isomer, unassigned) [Example 1q4] are 18.4 nM and 138 nM.
In the same order, the values of `C[C@H]1C[C@@H](c2ccc(C(=O)N(C)C)cc2)CCN1Cc1cc2c(-c3ccc(N)nc3C#N)ccnc2n1C` (single isomer, unassigned) [Example 1q5] are 57.4 nM and 651 nM.
In the same order, the values of `C[C@H]1C[C@@H](c2ccc(C(=O)N(C)C)cc2)CCN1Cc1cc2c(-c3ccc(N)cn3)ccnc2n1C` (single isomer, unassigned) [Example 1q6] are 47.4 nM and 3080 nM.
In the case of `CNc1ccc(-c2ccnc3c2cc(CN2CC[C@H](c4ccc(C(=O)N(C)C)cc4)[C@H](F)C2)n3C)cn1` (stereo in doubt) [Example 1s28, N,N-dimethyl-4-[(3S,4R)-3-fluoro-1-[[1-methyl-4-[6-(methylamino)-3-pyridyl]pyrrolo[2,3-b]pyridin-2-yl]methyl]-4-piperidyl]benzamide], the Kd at human STAT6 was 20.6 nM. Further, in experiment [1], the Emax stood at 76.4%.
`C[C@H](c1cc2c(-c3ccc(N)nc3)ccnc2n1C)N1CCC(c2ccc(C(=O)N(C)C)cc2)CC1` [Example 1af12, (R)-4-(1-(1-(4-(6-aminopyridin-3-yl)-1-methyl-1H-pyrrolo[2,3-b]pyridin-2-yl)ethyl)piperidin-4-yl)-N,N-dimethylbenzamide]: on human STAT6, the Kd stood at 12.9 nM. The EC50 in experiment [1] came out at 246 nM.
In the same order, the values of `C[C@H](c1cc2c(-c3ccc(N)nc3C#N)ccnc2n1C)N1CCC(c2ccc(C(=O)N(C)C)cc2)CC1` [Example 1af14, (R)-4-(1-(1-(4-(6-amino-2-cyanopyridin-3-yl)-1-methyl-1H-pyrrolo[2,3-b]pyridin-2-yl)ethyl)piperidin-4-yl)-N,N-dimethylbenzamide] are 18.5 nM and 135 nM.
In the same order, the values of `Cc1cc(C(=O)N(C)C)ccc1C1CCN([C@H](C)c2cc3c(-c4ccc(N)cn4)ccnc3n2C)CC1` [Example 1af18, (R)-4-(1-(1-(4-(5-aminopyridin-2-yl)-1-methyl-1H-pyrrolo[2,3-b]pyridin-2-yl)ethyl)piperidin-4-yl)-N,N,3-trimethylbenzamide] are 31.4 nM and 2910 nM.
As for `C[C@H](c1cc2c(-c3ccc(N)cn3)ccnc2n1C)N1CC=C(c2ccc(C(=O)N(C)C)cc2)CC1` [Example 1af20, (R)-4-(1-(1-(4-(5-aminopyridin-2-yl)-1-methyl-1H-pyrrolo[2,3-b]pyridin-2-yl)ethyl)-1,2,3,6-tetrahydropyridin-4-yl)-N,N-dimethylbenzamide], on human STAT6, the Kd was 40.4 nM. For the same compound, in experiment [1], the Emax was 76.7%.
For the compound `[2H]C([2H])([2H])N(C(=O)c1ccc(C2=CCN([C@H](C)c3cc4c(-c5ccc(N)nc5C#N)ccnc4n3C)CC2)c(C)c1)C([2H])([2H])[2H]` [Example 1af26, (R)-4-(1-(1-(4-(6-amino-2-cyanopyridin-3-yl)-1-methyl-1H-pyrrolo[2,3-b]pyridin-2-yl)ethyl)-1,2,3,6-tetrahydropyridin-4-yl)-3-methyl-N,N-bis(methyl-d3)benzamide], on human STAT6, the Kd turned out to be 20 nM. The same compound displayed an EC50 in experiment [1] of 65.4 nM.
In the same order, the values of `[2H]C([2H])([2H])N(C(=O)c1ccc(C2CCN([C@H](C)c3cc4c(-c5ccc(N)cn5)ccnc4n3C)CC2)cc1)C([2H])([2H])[2H]` [Example 1af36, (R)-4-(1-(1-(4-(5-aminopyridin-2-yl)-1-methyl-1H-pyrrolo[2,3-b]pyridin-2-yl)ethyl)piperidin-4-yl)-N,N-bis(methyl-d3)benzamide] are 15.7 nM and 404 nM.
In the same order, the values of `[2H]C([2H])([2H])N(C(=O)c1ccc(C2CCN([C@@H](C)c3cc4c(-c5ccc(N)nc5C#N)ccnc4n3C)CC2)c(C)c1)C([2H])([2H])[2H]` [Example 1af37, (S)-4-(1-(1-(4-(6-Amino-2-cyanopyridin-3-yl)-1-methyl-1H-pyrrolo[2,3-b]pyridin-2-yl)ethyl)piperidin-4-yl)-3-methyl-N,N-bis(methyl-d3)benzamide] are 57.7 nM and 699 nM.
In the same order, the values of `CNc1ccc(-c2ccnc3c2cc([C@H](C)N2CCC(c4ccc(C(=O)N(C)C)cc4)CC2)n3C)c(C#N)n1` [Example 1af39, (S)-4-(1-(1-(4-(2-xyano-6-(methylamino)pyridin-3-yl)-1-methyl-1H-pyrrolo-[2,3-b]pyridin-2-yl)ethyl)piperidin-4-yl)-N,N-dimethylbenzamide] are 32.7 nM and 115 nM.
Turning to `CNc1ccc(-c2ccnc3c2cc([C@@H](C)N2CCC(c4ccc(C(=O)N(C)C)cc4)CC2)n3C)c(C#N)n1` [Example 1af40, (R)-4-(1-(1-(4-(2-cyano-6-(methyl-amino)pyridin-3-yl)-1-methyl-1H-pyrrolo[2,3-b]pyridin-2-yl)ethyl)piperidin-4-yl)-N,N-dimethylbenzamide], the Kd at human STAT6 worked out at 2190 nM. For the same compound, the response in experiment [1] was half-maximal at 44400 nM (EC50).
For `Cc1cc(C(=O)N(C)C)ccc1C1=CCN([C@@H](C)c2cc3c(-c4ccc(N)nc4C#N)ccnc3n2C)CC1` [Example 1af44, (S)-4-(1-(1-(4-(6-Amino-2-cyanopyridin-3-yl)-1-methyl-1H-pyrrolo[2,3-b]-pyridin-2-yl)ethyl)-1,2,3,6-tetrahydropyridin-4-yl)-N,N,3-trimethylbenzamide], the Kd at human STAT6 came out at 352 nM. For the same compound, in experiment [1], the concentration for a half-maximal effect (EC50) was found to be 15900 nM.
In the same order, the values of `Cc1cc(C(=O)N(C)C)ccc1C1=CCN([C@H](C)c2cc3c(-c4ccc(N)nc4C#N)ccnc3n2C)CC1` [Example 1af45, (R)-4-(1-(1-(4-(6-amino-2-cyanopyridin-3-yl)-1-methyl-1H-pyrrolo[2,3-b]pyridin-2-yl)ethyl)-1,2,3,6-tetrahydropyridin-4-yl)-N,N,3-trimethylbenzamide] are 21.6 nM and 41 nM.
In the same order, the values of `[2H]C([2H])([2H])N(C(=O)c1ccc(C2=CCN([C@H](C)c3cc4c(-c5ccc(N)cn5)ccnc4n3C)CC2)cc1)C([2H])([2H])[2H]` [Example 1af46, (R)-4-(1-(1-(4-(5-amino-pyridin-2-yl)-1-methyl-1H-pyrrolo[2,3-b]pyridin-2-yl)ethyl)-1,2,3,6-tetrahydro-pyridin-4-yl)-N,N-bis(methyl-d3)benzamide] are 48.3 nM and 760 nM.
Turning to `CN(C)C(=O)c1ccc(C2CCN(Cc3cc4c(-c5ccc(N)nc5)ccnc4n3C)CC2)cc1` [Example 1k3, 4-[1-[[4-(6-Amino-3-pyridyl)-1-methyl-pyrrolo[2,3-b]pyridin-2-yl]methyl]-4-piperidyl]-N,N-dimethyl-benzamide], the Kd on human STAT6 was found to be 11.4 nM. Besides, a half-maximal response in experiment [1] (EC50) required 6000 nM.
`CN(C)C(=O)c1ccc(C2CCN(Cc3cc4c(-c5ccc(N)c(C(=O)O)c5)ccnc4n3C)CC2)cc1` [Example 1k6, 2-Amino-5-[2-[[4-[4-(dimethylcarbamoyl)phenyl]-1-piperidyl]methyl]-1-methyl-pyrrolo[2,3-b]pyridin-4-yl]benzoic acid]: on human STAT6, the Kd worked out at 9.05 nM. This compound displayed an Emax in experiment [1] of 57%.
Regarding `Cc1cc(-c2ccnc3c2cc(CN2CCC(c4ccc(C(=O)N(C)C)cc4)CC2)n3C)cnc1N` [Example 1k11, 4-[1-[[4-(6-Amino-5-methyl-3-pyridyl)-1-methyl-pyrrolo[2,3-b]pyridin-2-yl]methyl]-4-piperidyl]-N,N-dimethyl-benzamide], the Kd on human STAT6 stood at 30.5 nM. The compound further yielded an EC50 in experiment [1] of 6590 nM.
Take `CN(C)C(=O)c1ccc(C2CCN(Cc3cc4c(-c5cnc(N)nc5)ccnc4n3C)CC2)cc1` [Example 1k13, 4-[1-[[4-(2-Aminopyrimidin-5-yl)-1-methyl-pyrrolo[2,3-b]pyridin-2-yl]methyl]-4-piperidyl]-N,N-dimethyl-benzamide]: the dissociation constant Kd at human STAT6 is 87.7 nM. Moreover, the EC50 in experiment [1] was 14200 nM.
In the case of `CN(C)C(=O)c1ccc(C2CCN(Cc3cc4c(-c5cnc(N)c(F)c5)ccnc4n3C)CC2)cc1` [Example 1k14, 4-[1-[[4-(6-Amino-5-fluoro-3-pyridyl)-1-methyl-pyrrolo[2,3-b]pyridin-2-yl]methyl]-4-piperidyl]-N,N-dimethyl-benzamide], the Kd at human STAT6 is 37.2 nM. This compound came in with a maximal effect (Emax) in experiment [1] of 65.6%.
For `COc1nc(N)ccc1-c1ccnc2c1cc(CN1CCC(c3ccc(C(=O)N(C)C)cc3)CC1)n2C` [Example 1k22, 4-[1-[[4-(6-Amino-2-methoxy-3-pyridyl)-1-methyl-pyrrolo[2,3-b]pyridin-2-yl]methyl]-4-piperidyl]-N,N-dimethyl-benzamide], the Kd on human STAT6 came to 22.3 nM. Besides, in experiment [1], the EC50 is 1490 nM.
In the same order, the values of `CN(C)C(=O)c1ccc(C2CCN(Cc3cc4c(-c5ccc(N)nc5C#N)ccnc4n3C)CC2)cc1` [Example 1k43, 4-[1-[[4-(6-Amino-2-cyano-3-pyridyl)-1-methyl-pyrrolo[2,3-b]pyridin-2-yl]methyl]-4-piperidyl]-N,N-dimethyl-benzamide] are 31.4 nM and 871 nM.
Take `CNc1cc(C)c(-c2ccnc3c2cc(CN2CCC(c4ccc(C(=O)N(C)C)cc4)CC2)n3C)cn1` [Example 1k51, N,N-Dimethyl-4-[1-[[1-methyl-4-[4-methyl-6-(methylamino)-3-pyridyl]pyrrolo[2,3-b]pyridin-2-yl]methyl]-4-piperidyl]benzamide]: on human STAT6, the Kd came out at 80.5 nM. In addition, in experiment [1], the Emax came to 43%.
